The values that follow come from US4499094A, “Derivatives of arene and hetero-arene carboxamides and their use as medicaments” (Pharmuka Laboratoires, priority 1982, dated 1985).

SMILES strings stand for the structures.

The subject of one test is binding sites of (^3 H) diazepam in the kidney.
Experiment: not given
Particulars: kidney / peripheral level, in words; cited from earlier work.
Regarding `CN1C(=O)CN=C(c2ccc(Cl)cc2)c2cc(Cl)ccc21` [Ro-5-4864], the “activity at the binding sites of (^3 H) diazepam in the kidney (peripheral level)” value is on record as “very active at the peripheral level”.
As for `O=C1CN=C(c2ccccc2Cl)c2cc([N+](=O)[O-])ccc2N1` [clonazepam], the “activity at the binding sites of (^3 H) diazepam in the kidney (peripheral level)” value was “practically inactive”.

Still in this test, the particulars now being: rank order; cited from earlier work.
Take `CN1C(=O)CN=C(c2ccc(Cl)cc2)c2cc(Cl)ccc21` [Ro-5-4864]: the “classification by decreasing affinity, "peripheral" type” value is recorded as “Ro-5-4864>diazepam>clonazepam”.
With `O=C1CN=C(c2ccccc2Cl)c2cc([N+](=O)[O-])ccc2N1` [clonazepam], the “classification by decreasing affinity, "peripheral" type” value is given as “Ro-5-4864>diazepam>clonazepam”.
With `CN1C(=O)CN=C(c2ccccc2)c2cc(Cl)ccc21` [diazepam], the “classification by decreasing affinity, "peripheral" type” value is given as “Ro-5-4864>diazepam>clonazepam”.

In the next test the test system is binding sites of (^3 H) diazepam in the brain.
Experiment: not given
Particulars: brain, in words; cited from earlier work.
For `CN1C(=O)CN=C(c2ccc(Cl)cc2)c2cc(Cl)ccc21` [Ro-5-4864], the “affinity for the binding sites of (^3 H) diazepam in the brain (central level)” value was “inactive at the central level”.

The test is the same for the next values; noted with them: rank order; cited from earlier work.
Take `CN1C(=O)CN=C(c2ccc(Cl)cc2)c2cc(Cl)ccc21` [Ro-5-4864]: the “classification by decreasing affinity, "cerebral" type” value is listed as “clonazepan>diazepam>Ro-5-4864”.

For the next test, the target named is T1, "peripheral" receptor sites of benzodiazepines (Rattus norvegicus, UniProt P16257).
T1 construct: on kidney membranes from the rat; from tissue; host or cells: rat kidney membranes
As to the kind of experiment: Affinity for "peripheral" receptor sites of benzodiazepines: displacement of tritiated diazepam on kidney membranes from the rat. Format: binding.
Conditions: not given
From the text: The products have been studied according to the method of C. BRAESTRUP et al, Proc. Natl. Acad. Sci. USA, 1977, 74, 3805, on kidney membranes from the rat.
Compound `CCC(C)N(C)C(=O)c1cc2ccccc2c(-c2ccccc2)n1` (stereo not shown) [Example 10, N-methyl N(1-methylpropyl) 1-phenyl isoquinoline 3-carboxamide] gave a Ki of 2 nM.

Staying with this test, now noted: read-out: Ki.
With `CCN(CC)C(=O)c1cc(-c2ccccc2)c2ccccc2c1` [Example 1, N,N-diethyl 4-phenyl naphthalene 2-carboxamide], the Ki was determined as 5.4 nM.
Regarding `CCN(CC)C(=O)c1cc(-c2ccccc2)c2ccccc2n1` [Example 3, N,N-diethyl 4-phenyl quinoline 2-carboxamide], the Ki worked out at 27 nM.
As for `CCN(CC)C(=O)c1cc2ccccc2c(-c2ccccc2)n1` [Example 5, N,N-diethyl 1-phenyl isoquinoline 3-carboxamide], the inhibition constant Ki turned out to be 150 nM.
Regarding `CCN(CC)C(=O)c1cc2ccccc2c(-c2ccccc2Cl)n1` [Example 6, N,N-diethyl 1-(2-chloro-phenyl) isoquinoline 3-carboxamide], the Ki turned out to be 17 nM.
Take `O=C(c1cc2ccccc2c(-c2ccccc2)n1)N1CCCCC1` [Example 7, 1-[3-(1-phenylisoquinolyl)carbonyl]piperidine]: the Ki stood at 210 nM.
For the compound `CCN(CC)C(=O)c1cc2ccccc2c(-c2cccc(Cl)c2)n1` [Example 11, N,N-diethyl 1-(3-chlorophenyl) isoquinoline 3-carboxamide], the Ki stood at 9 nM.
Take `CCN(CC)C(=O)c1cc2ccccc2c(-c2ccc(C)cc2)n1` [Example 12, N,N-diethyl 1-(4-methylphenyl) isoquinoline 3-carboxamide]: the Ki was 99 nM.
Turning to `O=C(c1cc2ccccc2c(-c2ccccc2Cl)n1)N1CCCCC1` [Example 13, 1-[[1-(2-chlorophenyl) 3-isoquinolyl]carbonyl]piperidine], the Ki was determined as 72 nM.
On the same count and under the same terms, the value for `CCCN(CCC)C(=O)c1cc2ccccc2c(-c2ccccc2Cl)n1` [Example 14, N,N-dipropyl 1-(2-chlorophenyl) isoquinoline 3-carboxamide] was 18 nM.
For `CCN(CC)C(=O)c1cc2ccccc2c(-c2cccc(F)c2)n1` [Example 15, N,N-diethyl 1-(3-fluorophenyl) isoquinoline 3-carboxamide], the Ki is 20 nM.
Turning to `CCC(C)N(C)C(=O)c1cc2ccccc2c(-c2ccccc2F)n1` (stereo not shown) [Example 16, N-methyl N-(1-methylpropyl) 1-(2-fluorophenyl) isoquinoline 3-carboxamide], the inhibition constant Ki was 0.9 nM.
Regarding `CN(Cc1ccccc1)C(=O)c1cc2ccccc2c(-c2ccccc2Cl)n1` [Example 17, N-methyl N-phenylmethyl 1-(2-chlorophenyl) isoquinoline 3-carboxamide], the inhibition constant Ki is 117 nM.
Same read-out and setting: the value for `CC(C)N(C(=O)c1cc2ccccc2c(-c2ccccc2Cl)n1)C(C)C` [Example 24, N,N-di(1-methylethyl) 1-(2-chlorophenyl) isoquinoline 3-carboxamide] was 20 nM; that for `C=CC(C)N(C)C(=O)c1cc2ccccc2c(-c2ccccc2Cl)n1` (stereo not shown) [Example 25, N-methyl N(1-methylpropene-2-yl) 1-(2-chlorophenyl) isoquinoline 3-carboxamide] was 3 nM.
As to `CCN(CC)C(=O)c1cc2sccc2c(-c2ccccc2Cl)n1` [Example 31, N,N-diethyl 4-(2-chlorophenyl) thieno[3,2-c]pyridine 6-carboxamide], the Ki is 9 nM.
`CCN(CC)C(=O)c1cc2ccsc2c(-c2ccccc2Cl)n1` [Example 32, N,N-diethyl 7-(2-chlorophenyl) thieno[2,3-c]pyridine 5-carboxamide]: the Ki worked out at 6.3 nM.
Same read-out and setting: the value for `CCN(CC)C(=O)c1nc(-c2ccccc2)c2ccccc2n1` [Example 33, N,N-diethyl 4-phenyl quinazoline 2-carboxamide] was 27 nM; that for `CCC(C)N(C)C(=O)c1cc(-c2ccccc2F)c2ccccc2n1` (stereo not shown) [Example 35, N-methyl N(1-methylpropyl) 4-(2-fluorophenyl) quinoline 2-carboxamide] was 2 nM.
`CCN(CC)C(=O)c1cc(-c2cccc([N+](=O)[O-])c2)c2ccccc2n1` [Example 38, N,N-diethyl 4-(3-nitrophenyl) quinoline 2-carboxamide]: the Ki came to 30 nM.
With `CCCCN(CCCC)C(=O)c1cc2ccccc2c(-c2ccccc2)n1` [Example 39, N,N-dibutyl 1-phenyl isoquinoline 3-carboxamide], the Ki was found to be 21 nM.
For `CCC1CCCCN1C(=O)c1cc2ccccc2c(-c2ccccc2)n1` (stereo not shown) [Example 40, 2-ethyl 1-[(1-phenyl 3-isoquinolyl)carbonyl]piperidine], the Ki was 16 nM.
With `CC[C@@H]1CCCCN1C(=O)c1cc2ccccc2c(-c2ccccc2)n1` [Example 41, 2(R)-ethyl 1-[(1-phenyl 3-isoquinolyl)carbonyl]piperidine], the Ki is 22 nM.
As for `CC[C@H]1CCCCN1C(=O)c1cc2ccccc2c(-c2ccccc2)n1` [Example 42, 2(S)-ethyl 1-[(1-phenyl 3-isoquinolyl)carbonyl]piperidine], the Ki is 13 nM.
For the compound `CCN(CC)C(=O)c1cc2ccccc2c(-c2cccc(C(F)(F)F)c2)n1` [Example 43, N,N-diethyl 1-(3-trifluoromethylphenyl) isoquinoline 3-carboxamide], the Ki came out at 13 nM.
As to `CCC(C)N(C)C(=O)c1cc2ccsc2c(-c2ccccc2Cl)n1` (stereo not shown) [Example 46, N-methyl N-(1-methylpropyl) 7-(2-chlorophenyl) thieno[2,3-c]pyridine 5-carboxamide], the Ki is 7 nM.
On to `CCC(C)N(C)C(=O)c1cc2sccc2c(-c2ccccc2Cl)n1` (stereo not shown) [Example 47, N-methyl N-(1-methylpropyl) 4-(2-chlorophenyl) thieno[3,2-c]pyridine 6-carboxamide], for which the Ki is 1 nM.
